Reference: patent US20040229205A1, “Compositions for the storage of platelets” (priority 2003, published 2004)

Tests used:
Type in all cases: cell-based
[1] = test system: platelets (P-selectin expression); assay: P-selectin expression of stored platelets by flow cytometry, basal and after 10 nM thrombin challenge
Description: Internal protein expression may be measured by conjugation of a molecule with a fluorescent dye, followed by sorting in a fluorescent cell sorter. In general, it is preferable to use two monoclonal antibodies, one that binds a cell surface molecule expressed and a second that binds a cell surface molecule that is expressed only after activation. Each monoclonal antibody is conjugated to a different colored dye, that can be distinguished by spectrofluorometry. In the preferred embodiment, the normally expressed cell surface molecule is GPIIbIIIa; the cell surface molecule expressed after activation is P-selectin. It is well know in the art to make monoclonal antibodies to proteins. U.S. Pat. No. 5,470,738, issued in 1995 to Freilich et al, is one example of a method of making monoclonal antibodies to GPIIIa. Another anti-platelet monoclonal antibody is that to GP IV, as disclosed by U.S. Pat. No. 5,231,025, issued in 1993 to Gralnisch. However, it is most convenient to purchase antibodies commercially from such companies as Becton-Dickinson (Philadelphia).
A basal measurement of spontaneous activation is obtained and the cells are then challenged with an agonist. The difference between cells challenged to activate minus the basal measurement is a measure of cell function. In the preferred embodiment, the agonist is 10 nM thrombin.
P-selectin is an internal protein that is exposed on the surface of the platelet after activation. Once activated, platelets cannot be activated again, that is, they are nonfunctional. Platelets which have aggregated are likewise nonfunctional. Measurement of P-selectin before and after activation with thrombin provides a measure of the ability of the platelets to be activated.
P-selectin expression in response to a challenge of 10 nM thrombin is a highly accurate and quantitative method to assess platelet function using flow cytometry techniques. A monoclonal antibody to the platelet GPIIbIIIa receptor (Becton-Dickinson) is conjugated with green fluorescence, marking all platelets with a green detection. […] About 10,000 to 25,000 platelets are counted and measured for P-selectin expression and the % positive cells are defined as activated platelets that express P-selectin. Platelets that are activated are not capable of being activated a second time; that is, they are essentially nonfunctional.
It was proposed years ago by Dawson (Transfusion 21:215-218. (1981)) that ribose at the concentration of 15 mM is beneficial to stored whole blood. It was assumed that ribose functioned by raising the energy levels of the cells, as discussed at length in U.S. Pat. No. 6,159,942. […] However, it should be noted that the platelet storage milieu is an austere environment, lacking the homeostatic and buffering mechanisms of the kidneys, lungs and livers of an intact organism. Various concentrations of D-Ribose were tested to determine the optimum level for platelet storage. […] Platelet concentrate bags were obtained from a local transfusion center within two hours of collection from the donor. The platelets were either supplemented with the D-Ribose cocktail directly into the bag or the platelets were divided into a series of 10 tubes into each of which two ml of platelets were added. Platelet function was assessed by ATP secretion, platelet aggregation, P-selectin expression, platelet count and pH. Platelet function was measured every 24 hours. The bags and tubes were placed on a rotating wheel at room temperature for the duration of the experiment.
For the concentration test, platelets were stored for five days in standard platelet storage solution at room temperature and gentle agitation with or without various levels of ribose. At five days the P-selectin expression test was performed.

[2] = test system: platelets (ATP secretion); assay: ATP secretion of stored platelets in response to 10 nM thrombin (luciferin/luciferase)
Description: Yet another measure of platelet function is the secretion of ATP. Platelets that are able to function well are able to secrete ATP while cells that have already been activated or have lost funciton in other ways cannot secrete ATP.
The platelet dense granules shown in FIG. 1 contain ATP which is released in response to platelet agonists such as thrombin, collagen or adenosine diphosphate (ADP). The release reaction of ATP from platelets serves as another method to monitor platelet function. There are many methods to analyze ATP. A convenient method is the well known luciferin/luciferase reaction (Sigma Chemical, St. Louis). This assay is derived from the light producing system of the firefly. The substrate luciferin, in the presence of ATP, is cleaved by the enzyme luciferase, accompanied by the emission of light. The emitted light is measured by a photomultiplier tube
Platelet suspensions containing about 350 units in 40 μl were mixed with 10 μl luciferin/luciferase reagent. An agonist is injected. As the platelet dense granules release ATP, the bioluminescent reaction occurs, which is measured by the photomultiplier tube. […] The rate of reaction is recorded and as platelet function decays, the rate decays. Total ATP was measured by lysing the cells with Triton and determining ATP content. The results as presented in Table III are expressed as intact rate of ATP secretion.

[3] = test system: platelets (aggregation); assay: Platelet aggregation on thrombin challenge (optical density / aggregometer)
Description: Another parameter of platelet function is the ability to aggregate when challenged by an agonist. The platelet suspension is dense and milky white. Aggregation and subsequent settling of the aggregates can be estimated visually, or measured with a densitometer.
As a second measure of the effect of ribose on platelets, platelet aggregation was estimated. Platelet aggregation is a crucial function of platelet activity; platelets that cannot aggregate are essentially nonfunctional. Platelets were stored as above. The optical density of the suspension was measured before and after thrombin challenge.
Platelet aggregation was measured with a platelet aggregometer (Chronolog, Inc., Irvine, Calif.). Platelet-rich, turbid suspensions were stirred in a cuvette and the transmittance of light through the sample relative to a platelet poor blank is recorded. When a aggregating agent is added, activated platelets with exposed fibrinogen receptors (GPIIbIIIa) are brought in close contact with each other in a medium containing calcium and fibrinogen and form increasingly large platelet aggregates, accompanied by a decrease in turbidity. The change in optical density was then translated by the instrument to percent aggregation. Simple stated, as platelets clump, more light passes through the cuvette.

[4] = test system: platelets; assay: Preservation of platelet function in stored platelets, methods of examples 1 to 6
Description: It is known that other pentoses may have similar effects as D-Ribose, either through intracellular conversion to riboe or a direct effect. Ribulose-5-phosphate, xylulose-5-phosphate and xylitol were tested for preservation of activity in stored platelets according to the methods of examples 1 to 6.
Bacterial contamination was measured by colony counts in standard Petri dishes that had been inculated with the test solution. It is assumed that the millimolar glucose concentration in most platelet storage solutions contributes to the growth of bacteria. As noted above, Murphy (Table II) discloses a glucose-free solution for the storage of platelets. Elimination of reduction of glucose levels from millimolar to micromolar concentrations has a profound effect in reducing bacterial contamination, however, platelet function at five days, as measured by ATP secretion and P-selectin expression, was poor.

[5] = 1.5 mM down to 150 pM, analyzed every 24 hours

## O=C(CO)[C@H](O)[C@H](O)COP(=O)(O)O [Ribulose-5-phosphate]
[1]; [5]
  P-selectin expression in response to thrombin challenge versus controls: No difference from controls
[2]; [5]
  ATP secretion in response to 10 nM thrombin versus controls: No difference from controls
[3]; [5]
  platelet aggregation versus controls: No difference from controls

## OC[C@@H](O)[C@H](O)[C@@H](O)CO [xylitol]
[4]
  preservation of platelet function: some benefit

## O=C(CO)[C@@H](O)[C@H](O)COP(=O)(O)O [xylulose-5-phosphate, Xylulose-5-phosphate]
[1]; five-day treated platelets
  P-selectin expression in response to 10 nM thrombin challenge: 67.7%
  P-selectin spontaneous expression: 37.5%
[2]; five days storage
  ATP secretion, retention of basal value: 64.5%
[3]; five days storage
  platelet aggregation: weak
